Patent publication US20040171681A1, “Medicines and medicinal kits” (priority 2001, published 2004)

System: ocular hypertension models
Experiment: Test Example 1: ocular tension in rabbit ocular hypertension models (hypertonic saline) after eye drop solutions
Assay type: in vivo, Domesticated rabbits
Details: rabbits given 100 μl 5 w/v % hypertonic saline, 50 μl eye drop solution, mean ± standard error
Method: Domesticated rabbits intravenously administered with 100 μl of a 5 w/v % hypertonic saline solution were used as ocular hypertension models. After intravenously administering the hypertonic saline solution, 50 μl of each of the eye drop solutions were administered and the ocular tension was measured 60 and 120 minutes thereafter.

CC(C)OC(=O)CCC/C=C\C[C@@H]1[C@@H](CC[C@@H](O)CCc2ccccc2)[C@H](O)C[C@@H]1O [Latanoprost, latanoprost]
Ocular tension change (mmHg) 60 minutes (60 minutes after): 22.7 ± 1.2 mmHg | Ocular tension change (mmHg) 120 minutes (120 minutes after): 9.8 ± 1.9 mmHg
